Results from the NIST ThermoML archive (doi:10.1021/acs.jced.8b01075).

Test: molar heat capacity at saturation pressure
Details: Crystal, Small (less than 1 g) adiabatic calorimetry

[Al+3].[Al+3].[O-2].[O-2].[O-2] [aluminum oxide (Al2O3)]
Details | molar heat capacity [J/K/mol]
81.94 K | 7.415
84.02 K | 7.956
87.02 K | 8.82
90.02 K | 9.678
93.01 K | 10.58
96 K | 11.53
98.99 K | 12.53
101.97 K | 13.54
104.94 K | 14.57
107.93 K | 15.61
110.92 K | 16.7
113.92 K | 17.8
116.92 K | 18.91
119.93 K | 20.06
122.94 K | 21.18
125.95 K | 22.36
128.99 K | 23.51
132.02 K | 24.71
135.04 K | 25.91
138.07 K | 27.14
141.09 K | 28.39
144.13 K | 29.63
147.16 K | 30.83
150.2 K | 32.05
153.23 K | 33.28
156.27 K | 34.49
159.31 K | 35.7
162.35 K | 36.9
165.39 K | 38.13
168.44 K | 39.32
171.48 K | 40.52
174.52 K | 41.67
177.6 K | 42.88
180.64 K | 44.01
183.68 K | 45.17
186.72 K | 46.24
189.76 K | 47.4
192.8 K | 48.56
195.84 K | 49.61
198.88 K | 50.65
201.91 K | 51.8
204.95 K | 52.77
207.97 K | 53.81
211 K | 54.84
214.02 K | 55.88
217.04 K | 56.95
220.05 K | 57.85
223.06 K | 58.88
226.07 K | 59.93
229.07 K | 60.93
232.07 K | 61.8
235.06 K | 62.67
238.05 K | 63.55
241.03 K | 64.4
244.01 K | 65.33
246.98 K | 66.26
249.94 K | 67.1
252.9 K | 67.9
255.85 K | 68.71
258.78 K | 69.49
261.71 K | 70.19
264.63 K | 71.03
267.53 K | 71.84
270.43 K | 72.53

O=C(O)c1ccccc1 [benzoic acid]
Details | molar heat capacity [J/K/mol]
4.54 K | 0.238
4.75 K | 0.256
4.88 K | 0.271
5.02 K | 0.296
5.16 K | 0.31
5.29 K | 0.316
5.42 K | 0.327
5.53 K | 0.343
5.64 K | 0.358
5.75 K | 0.372
5.85 K | 0.388
5.95 K | 0.419
6.07 K | 0.438
6.22 K | 0.468
6.38 K | 0.502
6.53 K | 0.521
6.7 K | 0.571
6.84 K | 0.618
6.99 K | 0.662
7.14 K | 0.7
7.29 K | 0.731
7.43 K | 0.778
7.57 K | 0.823
7.72 K | 0.893
7.86 K | 0.954
8.01 K | 0.978
8.16 K | 1.053
8.31 K | 1.116
8.46 K | 1.163
8.6 K | 1.263
8.76 K | 1.329
8.91 K | 1.384
9.07 K | 1.472
9.22 K | 1.512
9.38 K | 1.58
9.53 K | 1.649
9.69 K | 1.725
9.84 K | 1.858
10 K | 1.902
10.21 K | 2.036
10.49 K | 2.207
10.76 K | 2.354
11.04 K | 2.56
11.32 K | 2.751
11.6 K | 2.956
11.88 K | 3.123
12.17 K | 3.346
12.45 K | 3.529
12.75 K | 3.819
13.03 K | 4.037
13.33 K | 4.28
13.62 K | 4.532
13.91 K | 4.755
14.01 K | 4.933
14.31 K | 5.137
14.6 K | 5.519
14.9 K | 5.794
15.19 K | 6.073
15.49 K | 6.356
15.79 K | 6.616
16.09 K | 6.911
16.39 K | 7.207
16.7 K | 7.541
17 K | 7.836
17.3 K | 8.091
17.6 K | 8.409
17.91 K | 8.786
18.21 K | 9.095
18.52 K | 9.471
18.83 K | 9.71
19.13 K | 10.14
19.44 K | 10.4
19.58 K | 10.55
19.75 K | 10.7
19.89 K | 10.86
20.52 K | 11.49
21.41 K | 12.5
22.31 K | 13.49
23.22 K | 14.56
24.13 K | 15.56
25.05 K | 16.55
25.98 K | 17.58
26.92 K | 18.63
27.86 K | 19.67
28.81 K | 20.7
29.76 K | 21.73
30.71 K | 22.75
31.67 K | 23.72
32.64 K | 24.69
33.6 K | 25.68
34.57 K | 26.57
35.56 K | 27.57
36.53 K | 28.47
37.51 K | 29.44
38.5 K | 30.44
39.89 K | 31.71
40.89 K | 32.53
41.89 K | 33.31
42.89 K | 33.99
43.89 K | 34.84
44.89 K | 35.7
45.89 K | 36.42
46.89 K | 37.22
47.9 K | 38.04
48.9 K | 38.77
49.91 K | 39.47
50.92 K | 40.13
51.94 K | 40.84
52.95 K | 41.56
53.97 K | 42.16
54.98 K | 42.68
56.02 K | 43.44
57.03 K | 44.09
58.06 K | 44.66
59.17 K | 45.31
60.19 K | 45.98
61.22 K | 46.55
62.24 K | 47.19
63.27 K | 47.79
64.3 K | 48.32
65.32 K | 48.9
66.35 K | 49.45
67.38 K | 49.97
68.41 K | 50.43
69.43 K | 50.89
71.27 K | 51.74
73.3 K | 52.71
75.33 K | 53.69
77.36 K | 54.68
78.78 K | 55.18
79.56 K | 55.66
81.07 K | 56.41
83.09 K | 57.46
85.1 K | 58.18
87.11 K | 58.97
89.11 K | 59.73
91.11 K | 60.5
93.12 K | 61.27
95.11 K | 62.07
97.11 K | 62.81
99.11 K | 63.57
101.6 K | 64.59
104.58 K | 65.66
107.58 K | 66.69
110.58 K | 67.85
113.59 K | 69.03
116.61 K | 70.18
119.62 K | 71.3
122.63 K | 72.54
125.65 K | 73.61
128.67 K | 74.78
131.69 K | 75.96
134.72 K | 77.09
137.76 K | 78.23
140.79 K | 79.41
143.83 K | 80.49
146.87 K | 81.68
149.91 K | 82.93
152.95 K | 84.03
156 K | 85.17
159.05 K | 86.37
162.09 K | 87.59
165.18 K | 88.85
168.23 K | 90.02
171.28 K | 91.22
174.33 K | 92.46
177.38 K | 93.64
180.44 K | 94.8
183.49 K | 96.08
186.54 K | 97.26
189.6 K | 98.55
192.66 K | 99.83
195.71 K | 101
198.77 K | 102.3
201.83 K | 103.6
204.89 K | 104.9
208.45 K | 106.6
212.52 K | 108.2
216.67 K | 110.1
220.76 K | 111.7
224.85 K | 113.5
228.95 K | 115.3
237.16 K | 119
241.28 K | 120.8
245.39 K | 122.6
249.52 K | 124.4
253.64 K | 126.3
257.77 K | 128.1
261.9 K | 130
266.04 K | 132
270.19 K | 133.8
274.34 K | 135.7
278.49 K | 137.6
282.77 K | 139.8
286.93 K | 141.6
291.09 K | 143.5
295.26 K | 145.5
299.42 K | 147.4
304.38 K | 149.7
310.53 K | 152.6
317.37 K | 155.7
324.19 K | 158.8
330.99 K | 162
